# Results reported in patent US12226410B2, “Methods for enhancing cellular clearance of pathological molecules via activation of the cellular protein ykt6” (NORTHWESTERN UNIVERSITY, priority 2019, dated 2025).
# What was measured:
# [1] = test system: ykt6; test: FTI treatment of wild-type mice: ykt6 membrane distribution and SNARE complexes in cortex; format: in vivo; details: daily i.p. 0.9 mg/kg, 14 days
# Procedure: FIGS. 15A, 15B, 15C, 15D, 15E, and 15F. FTI treatment of wild-type mice enhances ykt6 SNARE complexes, lysosomal activity, and reduces a-syn. 15A) Wild-type mice (C57Bl/6) were i.p. injected daily with FTI for 14 days at 0.9 mg/kg and compared to vehicle injected mice. Extracts from the cortex were analyzed for cytosolic (cyt) and membrane (mem) distribution of ykt6 (veh, n=5; FTI, n=6). 15B) Representative gel filtration/western blot analysis of cortical extracts of veh or FTI injected wild-type mice. Inputs are shown on the left. NSE indicates equal column loading. 15C) Quantification of ykt6 and STX5 complexes (ca. 120A) from gel filtration analysis in C (n=4 mice). Fraction 1 corresponds to complexes at 120A, while fractions 7-9 correspond to ykt6 monomers at 22-14 A. 15D) The levels of post ER (endo H resistant) GCase were analyzed by western blot and post ER/ER ratios were quantified from the cortex of FTI treated mice (veh, n=5; FTI, n=6). 15E) GCase activity was assessed in cortical lysates and normalized to total protein (veh, n=4; FTI, n=6). 15F) a-Syn levels were quantified from cytosolic or membrane isolated fractions from the cortex of wild-type FTI treated mice (veh, n=4; FTI, n=6). For all quantifications, values are the mean+/−SEM, *p<0.05.
# Separation of lysates into cytosol and membrane fractions. Cell cultures from either a 10 cm dish (SH-SY5Y) or 6 well (iPSn) were scraped in cold PBS and pelleted by centrifugation at 400×g, 5 min, 4° C. The supernatant was discarded and cell pellets were homogenized in 200-400 ul of cold PBS containing protease inhibitor cocktail mix (1 mM phenylmethanesulfonyl fluoride (PMSF), 50 mM NaF, 2 mM Na orthovanadate, and a protease inhibitor cocktail (Roche diagnostics, http://www.roche.com, #11-836-170-001)) using a Teflon homogenizer in a conical glass vessel for 20-40 times, using a motor driven spindle at 4000 rpm (GlasCol, https://glascol.com/homogenizers). […] Fractions were then analyzed by western blot analysis as described below. The samples were not analyzed in a blinded manner. […]
# [2] = test system: ykt6 SNARE complexes; test: SEC/western blot of ykt6 SNARE complexes in FTI-treated cultures; format: cell-based, human; details: SH-SY5Y cells, confirmed in A53T iPSn
# Procedure: FIGS. 5A, 5B, 5C, 5D, 5E, 5F, and 5G. Reducing farnesyl-ykt6 enhances SNARE assembly and improves the lysosomal targeting of GCase. 5A) Ykt6 membrane shift analysis of SH-SY5Y cells expressing GFP-ykt6 wt or CS (n=3). 5B) Co-IP of GFP-ykt6 and bet1 in A53T iPSn (n=3). 5C) Ykt6 membrane shift analysis in FTI-treated SH-SY5Y wt a-syn cells or A53T iPSn (5 nM farnesyltransferase inhibitors (FTI) LNK-754 (FTI-1) or LNK-3248 (FTI-2) for 5 days) (n=4). Sec22b was measured to assess specificity. 5D) SEC/western blot of FTI-1 treated SH-SY5Y cells. Quantification is shown below. 5E) Co-IP of GFP-ykt6 wt or mutant ykt6-SS, (cannot be palmitoylated or farnesylated) in FTI-treated SHSY5Y cells (5 nM LNK-754, 5d) (n=2). 5F) Immunofluorescence of GCase and LAMP2A in FTI-treated H4 a-syn cells transfected with scrambled (scrb) or ykt6 shRNA (n=3). Scale bar=10 um. 5G) GCase maturation analysis in FTI-treated A53T iPSn by endo H (n=3). Values are the mean+/−SEM, *p<0.05.
# Size exclusion chromatography analysis. Cultures or PD brain (cingulate cortex, previously described (Mazzulli et al., 2011)) were homogenized as described above in 1% Triton buffer, centrifuged at 100,000×g for 30 min at 4° C. […]
# Treatment of cultures with farnesyltransferase inhibitors. […] Cultures were harvested and analyzed as described in the above sections.
structure (smiles),measurement,setting,value
C#Cc1cccc(-c2cc(=O)n(C)c3ccc([C@](O)(c4ccc(Cl)cc4)c4cncn4C)cc23)c1 [LNK-754],levels of membrane associated ykt6 and STX5,[1],increase the levels of membrane associated ykt6 and STX5
same,sec22b,[1],no change
same,ykt6 distribution by SEC (monomers vs complexes),[1],shifted its distribution from monomers into high molecular weight complexes
same,levels of ykt6 SNARE complexes by SEC,[2],elevated the levels of ykt6 SNARE complexes
